Tests used:
[1] = Water slurry analysis of lenalidomide cocrystals; assay type: physicochemical; design: key: If the cocrystal was intact, the cocrystal could be described as less soluble than the stable 3-(4-amino-1-oxo-1,3 dihydro-isoindol-2-yl)-piperidine-2,6-dione form in water (characterized as “stable”); the cocrystal transformation indicates that under those conditions the cocrystal is more soluble than the stable form of the 3-(4-amino-1-oxo-1,3 dihydro-isoindol-2-yl)-piperidine-2,6-dione in water (characterized as “transformed”); conditions: slurry of ~8 to 10 mg of cocrystal in 1 mL of pure water, stirred for 24 hours, solid isolated by filtration and analyzed by XRPD
Protocol: The solubility of the cocrystals obtained in Examples 1, 2, 3, 4, 5, 6, 7, and 8 were compared to the stable form of the API in pure water by creating a slurry of ˜8 to 10 mg of cocrystal in 1 mL of water. The resulting slurry was stirred for 24 hours. The solid was isolated by filtration and analyzed by XRPD.

[2] = Stability testing of lenalidomide cocrystals; assay type: physicochemical; design: key: the solids remained as the starting cocrystal material, indicating that they are stable under these conditions (“stable”); transformed partially or completely into a different crystalline material, indicating that they are not stable under these conditions (“not stable”); conditions: stored at 40 degrees Celsius and 75% relative humidity (saturated NaCl) for 14 days, XRPD

| Water slurry result [1] | Stability test result [2] | SMILES |
| --- | --- | --- |
| transformed | not stable | Nc1cccc2c1CN(C1CCC(=O)NC1=O)C2=O [L-tartaric acid cocrystal of lenalidomide] [3-(4-amino-1-oxo-1,3-dihydroisoindol-2-yl)piperidine-2,6-dione-L-tartaric acid cocrystal] |
| transformed | stable | Nc1cccc2c1CN(C1CCC(=O)NC1=O)C2=O (centres unmarked) [ammonium chloride cocrystal of lenalidomide] [3-(4-amino-1-oxo-1,3-dihydroisoindol-2-yl)piperidine-2,6-dione-ammonium chloride cocrystal] |
| transformed | stable | Nc1cccc2c1CN(C1CCC(=O)NC1=O)C2=O (centres unmarked) [gallic acid cocrystal of lenalidomide, 3-(4-amino-1-oxo-1,3-dihydroisoindol-2-yl)piperidine-2,6-dione-gallic acid cocrystal] |
| transformed | not stable | Nc1cccc2c1CN(C1CCC(=O)NC1=O)C2=O (centres unmarked) [malonic acid cocrystal of lenalidomide, 3-(4-amino-1-oxo-1,3-dihydroisoindol-2-yl)piperidine-2,6-dione-malonic acid cocrystal] |
| transformed | stable | Nc1cccc2c1CN(C1CCC(=O)NC1=O)C2=O (centres unmarked) [oxallic acid cocrystal of lenalidomide, 3-(4-amino-1-oxo-1,3-dihydroisoindol-2-yl)piperidine-2,6-dione and oxalic acid cocrystal] |
| transformed | not stable | Nc1cccc2c1CN(C1CCC(=O)NC1=O)C2=O (centres unmarked) [propyl gallate cocrystal of lenalidomide, 3-(4-amino-1-oxo-1,3-dihydroisoindol-2-yl)piperidine-2,6-dione-propylgallate cocrystal] |
| transformed | stable | Nc1cccc2c1CN(C1CCC(=O)NC1=O)C2=O (centres unmarked) [urea cocrystal of lenalidomide, 3-(4-amino-1-oxo-1,3-dihydroisoindo-2-yl)piperidine-2,6-dione-urea cocrystal] |

Source: US10100032B2, “Crystalline forms of 3-(4-amino-1-oxo-1,3 dihydro-isoindol-2-yl)-piperidine-2,6-dione” (AMPLIO PHARMA, LLC, priority 2011, dated 2018)
